38 compounds from patent US20230250106A1, “COMPOUNDS AND COMPOSITIONS FOR TREATING CONDITIONS ASSOCIATED WITH STING ACTIVITY” (IFM Due, Inc., priority 2020, published 2023) can be followed below.

In one assay the test system is STING pathway. As to the kind of experiment: STING reporter assay: luciferase reporter activity in THP1-Dual KO-IFNAR2 cells activated with 2'3'cGAMP. It is filed as cell-based. More on the design: hSTING EC50: scale not given here. As to conditions: 2'3'cGAMP 15 μM, 24 h. Put shortly: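 THP1-Dual KO-IFNAR2 cells were exposed to compounds at 0.0017-100 μM final and stimulated with 2′3′cGAMP (15 μM final) delivered with Lipofectamine 2000. After 24 h at 37 °C, secreted luciferase in the supernatant was read with QUANTI-Luc Plus, and EC50 values were calculated.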
Turning to `COc1ncc(C(=O)Nc2c[nH]c3cc(F)c(F)cc23)cc1C(F)(F)F` [Compound 264, N-(5,6-difluoro-1H-indol-3-yl)-6-methoxy-5-(trifluoromethyl)pyridine-3-carboxamide], the “hSTING EC50” value is recorded as “+ +”.

Staying with this assay, now noted: Homo sapiens, 2'3'cGAMP 15 μM, 24 h, read-out: hSTING EC50.
For orientation: EC50 means the midpoint of the concentration-response curve. On to `COCCNc1cc(C(=O)Nc2c[nH]c3cc(F)c(F)cc23)ccc1C(F)(F)F` [Compound 236, N-(5,6-difluoro-1H-indol-3-yl)-3-((2-methoxyethyl)amino)-4-(trifluoromethyl)benzamide], for which the EC50 lay in the range of 200 to 1000 nM. For the compound `O=C(Nc1c[nH]c2cc(F)c(F)cc12)c1ccc(CN2CC3(C2)CC(F)(F)C3)c(F)c1` [Compound 237, N-(5,6-difluoro-1H-indol-3-yl)-4-((6,6-difluoro-2-azaspiro[3.3]heptan-2-yl)methyl)-3-fluorobenzamide], the EC50 lay in the range of 200 to 1000 nM.

On to `COCCNc1cc(C(=O)Nc2c[nH]c3cc(F)c(F)cc23)ccn1` [Compound 238, N-(5,6-difluoro-1H-indol-3-yl)-2-((2-methoxyethyl)amino)isonicotinamide], for which the EC50 fell in the range of 5000 to 100000 nM. Turning to `O=C(Nc1c[nH]c2cc(F)c(F)cc12)c1cnc(NCCC(F)(F)F)c(Cl)c1` [Compound 239, 5-chloro-N-(5,6-difluoro-1H-indol-3-yl)-6-((3,3,3-trifluoropropyl)amino)nicotinamide], the half-maximal effective concentration (EC50) fell in the range of 200 to 1000 nM. Same read-out and setting: the result for `O=C(Nc1c[nH]c2cc(F)c(F)cc12)c1cnc(C2CC(F)(F)C2)c(Cl)c1` [Compound 240, 5-chloro-N-(5,6-difluoro-1H-indol-3-yl)-6-(3,3-difluorocyclobutyl)nicotinamide] reads 200 to 1000 nM; that for `CCC(O)c1cc(C(=O)Nc2c[nH]c3cc(F)c(F)cc23)ccn1` (centres unmarked) [Compound 241, N-(5,6-difluoro-1H-indol-3-yl)-2-(1-hydroxypropyl)isonicotinamide], 5000 to 100000 nM; that for `O=C(Nc1c[nH]c2cc(F)c(F)cc12)c1cnc(NCCC(F)(F)F)c(F)c1` [Compound 242, N-(5,6-difluoro-1H-indol-3-yl)-5-fluoro-6-((3,3,3-trifluoropropyl)amino)nicotinamide], 200 to 1000 nM. Same read-out and setting: then `Cc1ncc(C(=O)Nc2c[nH]c3cc(F)c(F)cc23)cc1NCCCC(F)(F)F` [Compound 243, N-(5,6-difluoro-1H-indol-3-yl)-6-methyl-5-((4,4,4-trifluorobutyl)amino)nicotinamide], with 200 to 1000 nM; and `O=C(Nc1c[nH]c2cc(F)c(F)cc12)c1ccc(OC2CN(CC(F)(F)F)C2)nc1` [Compound 246, N-(5,6-difluoro-1H-indol-3-yl)-6-((1-(2,2,2-trifluoroethyl)azetidin-3-yl)oxy)nicotinamide], with 200 to 1000 nM. `O=C(Nc1c[nH]c2cc(F)c(F)cc12)c1ccnc(NC2CC(F)(F)C2)c1` [Compound 247, N-(5,6-difluoro-1H-indol-3-yl)-2-((3,3-difluorocyclobutyl)amino)isonicotinamide]: the EC50 fell in the range of 200 to 1000 nM. Consider `O=C(Nc1c[nH]c2cc(F)c(F)cc12)c1ccc(C2(O)CCOCC2)cc1` [Compound 248, N-(5,6-difluoro-1H-indol-3-yl)-4-(4-hydroxytetrahydro-2H-pyran-4-yl)benzamide], for which the EC50 fell in the range of 5000 to 100000 nM. Regarding `CC(C)(C)OC(=O)N1CCC(Oc2ccc(C(=O)Nc3c[nH]c4cc(F)c(F)cc34)cc2)CC1` [Compound 249, tert-butyl 4-{4-[(5,6-difluoro-1H-indol-3-yl)carbamoyl]phenoxy}piperidine-1-carboxylate], the EC50 was 200 to 1000 nM.

In the case of `O=C(Nc1c[nH]c2cc(F)c(F)cc12)c1ccc(C2(O)CCC(F)(F)CC2)nc1` [Compound 250, 6-(4,4-difluoro-1-hydroxycyclohexyl)-N-(5,6-difluoro-1H-indol-3-yl)nicotinamide], the EC50 fell in the range of 1000 to 5000 nM.

With `O=C(Nc1c[nH]c2cc(F)c(F)cc12)c1cccc(C2(O)CCC(F)(F)CC2)c1` [Compound 251, 3-(4,4-difluoro-1-hydroxycyclohexyl)-N-(5,6-difluoro-1H-indol-3-yl)benzamide], the concentration giving a half-maximal response (EC50) fell in the range of 1000 to 5000 nM. For the compound `O=C(Nc1c[nH]c2cc(F)c(F)cc12)c1ccnc(N2CC(F)(F)C2)c1Cl` [Compound 252, 3-chloro-N-(5,6-difluoro-1H-indol-3-yl)-2-(3,3-difluoroazetidin-1-yl)isonicotinamide], the EC50 lay within 1000 to 5000 nM.

Turning to `Cc1c(C(=O)Nc2c[nH]c3cc(F)c(F)cc23)ccnc1N1CC(F)(F)C1` [Compound 253, N-(5,6-difluoro-1H-indol-3-yl)-2-(3,3-difluoroazetidin-1-yl)-3-methylisonicotinamide], the EC50 lay within 1000 to 5000 nM. The same measure, in the same setting: then `O=C(Nc1c[nH]c2cc(F)c(F)cc12)c1cnc(CN2CCC(F)(F)CC2)c(Cl)c1` [Compound 254, 5-chloro-N-(5,6-difluoro-1H-indol-3-yl)-6-((4,4-difluoropiperidin-1-yl)methyl)nicotinamide], with 200 to 1000 nM; and `O=C(Nc1c[nH]c2cc(F)c(F)cc12)c1cnc(CN2CC(F)(F)C2)c(Cl)c1` [Compound 255, 5-chloro-N-(5,6-difluoro-1H-indol-3-yl)-6-((3,3-difluoroazetidin-1-yl)methyl)nicotinamide], with 1000 to 5000 nM.

Take `Cc1ncc(C(=O)Nc2c[nH]c3cc(F)c(F)cc23)cc1N1CCC(F)(F)CC1` [Compound 256, N-(5,6-difluoro-1H-indol-3-yl)-5-(4,4-difluoropiperidin-1-yl)-6-methylnicotinamide]: the EC50 lay within 1000 to 5000 nM.

As to `O=C(Nc1c[nH]c2cc(F)c(F)cc12)c1ccnc(CN2CC(F)(F)C2)c1` [Compound 257, N-(5,6-difluoro-1H-indol-3-yl)-2-((3,3-difluoroazetidin-1-yl)methyl)isonicotinamide], the EC50 lay in the range of 5000 to 100000 nM.

Turning to `O=C(Nc1c[nH]c2cc(F)c(F)cc12)c1ccc(C2(O)CCC(F)(F)CC2)c(F)c1` [Compound 258, 4-(4,4-difluoro-1-hydroxycyclohexyl)-N-(5,6-difluoro-1H-indol-3-yl)-3-fluorobenzamide], the EC50 fell in the range of 200 to 1000 nM.

`O=C(Nc1c[nH]c2cc(F)c(Cl)cc12)c1ccc(C2(O)CCC(F)(F)CC2)cc1` [Compound 259, N-(5-chloro-6-fluoro-1H-indol-3-yl)-4-(4,4-difluoro-1-hydroxycyclohexyl)benzamide]: the EC50 lay within 200 to 1000 nM. With `O=C(Nc1c[nH]c2cc(F)c(F)cc12)c1ccc(CN2CC(F)C2)c(F)c1` [Compound 260, N-(5,6-difluoro-1H-indol-3-yl)-3-fluoro-4-((3-fluoroazetidin-1-yl)methyl)benzamide], the EC50 fell in the range of 200 to 1000 nM. On to `CCC1Cc2ccc(C(=O)Nc3c[nH]c4cc(F)c(F)cc34)cc2C1` (centres unmarked) [Compound 261, N-(5,6-difluoro-1H-indol-3-yl)-2-ethyl-2,3-dihydro-1H-indene-5-carboxamide], for which the EC50 fell in the range of 200 to 1000 nM.

As for `O=C(Nc1c[nH]c2cc(F)c(F)cc12)c1ccc(OCCOC(F)(F)F)c(F)c1` [Compound 262, N-(5,6-difluoro-1H-indol-3-yl)-3-fluoro-4-(2-(trifluoromethoxy)ethoxy)benzamide], the concentration giving a half-maximal response (EC50) lay in the range of 200 to 1000 nM. In the case of `O=C(Nc1c[nH]c2cc(F)c(F)cc12)c1ccnc(Oc2ccccc2)c1` [Compound 263, N-(5,6-difluoro-1H-indol-3-yl)-2-phenoxypyridine-4-carboxamide], the EC50 was in the range of 200 to 1000 nM. Still for that read-out and setting: then `CC(C)Oc1ccc(C(=O)Nc2c[nH]c3cc(F)c(F)cc23)cn1` [Compound 265, N-(5,6-difluoro-1H-indol-3-yl)-6-(propan-2-yloxy)pyridine-3-carboxamide], with 200 to 1000 nM. As for `O=C(Nc1c[nH]c2cc(F)c(F)cc12)c1ccc(-c2noc(C3CC3)n2)cc1` [Compound 266, 4-(5-cyclopropyl-1,2,4-oxadiazol-3-yl)-N-(5,6-difluoro-1H-indol-3-yl)benzamide], the EC50 was in the range of 200 to 1000 nM. As for `CC(C)c1nc(-c2ccc(C(=O)Nc3c[nH]c4cc(F)c(F)cc34)cc2)no1` [Compound 267, N-(5,6-difluoro-1H-indol-3-yl)-4-(5-isopropyl-1,2,4-oxadiazol-3-yl)benzamide], the half-maximal effective concentration (EC50) was 200 to 1000 nM. Turning to `O=C(Nc1c[nH]c2cc(F)c(F)cc12)c1ccc(OC(F)(F)C(F)F)cc1` [Compound 268, N-(5,6-difluoro-1H-indol-3-yl)-4-(1,1,2,2-tetrafluoroethoxy)benzamide], the EC50 was 200 to 1000 nM. Still for that read-out and setting: then `O=C(Nc1c[nH]c2cc(F)c(F)cc12)c1ccc(OC2COC2)cc1` [Compound 269, N-(5,6-difluoro-1H-indol-3-yl)-4-(oxetan-3-yloxy)benzamide], with 1000 to 5000 nM; and `O=C(Nc1c[nH]c2cc(F)c(F)cc12)c1ccc(OC(F)F)cn1` [Compound 270, N-(5,6-difluoro-1H-indol-3-yl)-5-(difluoromethoxy)pyridine-2-carboxamide], with 5000 to 100000 nM. With `N#Cc1cc(C(=O)Nc2c[nH]c3ccc(Cl)cc23)cnc1N1CC(F)(F)C1` [Compound 271, N-(5-chloro-1H-indol-3-yl)-5-cyano-6-(3,3-difluoroazetidin-1-yl)nicotinamide], the EC50 fell in the range of 200 to 1000 nM. On the same count and under the same terms, the result for `Cc1cc(N2CC(F)(F)C2)ncc1C(=O)Nc1c[nH]c2ccc(Cl)cc12` [Compound 272, N-(5-chloro-1H-indol-3-yl)-6-(3,3-difluoroazetidin-1-yl)-4-methylnicotinamide] reads 200 to 1000 nM; that for `O=C(Nc1c[nH]c2cc(F)c(F)cc12)c1ccc(CN2CC(F)(F)C2)nc1` [Compound 273, N-(5,6-difluoro-1H-indol-3-yl)-6-((3,3-difluoroazetidin-1-yl)methyl)nicotinamide], 5000 to 100000 nM; that for `Cc1nc(-c2cccc(C(=O)Nc3c[nH]c4cc(F)c(F)cc34)c2)no1` [Compound 274, N-(5,6-difluoro-1H-indol-3-yl)-3-(5-methyl-1,2,4-oxadiazol-3-yl)benzamide], 200 to 1000 nM. Still for that read-out and setting: the result for `CC(O)c1cc(C(=O)Nc2c[nH]c3cc(F)c(F)cc23)cc(C(F)(F)F)c1` (centres unmarked) [Compound 275, N-(5,6-difluoro-1H-indol-3-yl)-3-(1-hydroxyethyl)-5-(trifluoromethyl)benzamide] reads 1000 to 5000 nM.
